Measured values published in US20140323418A1, “SELECTIVE KINASE INHIBITORS” (PORTOLA PHARMACEUTICALS, INC., priority 2011, published 2014).

Each molecule was assayed against T1, full length active recombinant SYK enzyme (Homo sapiens, UniProt P43405) (assay: Inhibition of Syk tyrosine phosphorylation activity (LANCE TR-FRET kinase assay)). Settings: 1 nM SYK, 550 nM substrate, 100 μM ATP, 1 hour room temperature.
T1 construct: full length active recombinant SYK enzyme (Millipore, Calif.); purchased Millipore
Assay type: biochemical

First: COc1ccc(Nc2ncc(C(N)=O)c(N[C@H]3CC[C@@H](N)CC3)n2)cc1 [Example 185, 4-(4-aminocyclohexylamino)-2-(4-methoxyphenylamino)pyrimidine-5-carboxamide]
Second: COc1ccc(Nc2ncc(C(N)=O)c(N[C@H]3CC[C@H](N)CC3)n2)cc1 [Example 245, 4-(trans-4-aminocyclohexylamino)-2-(4-methoxyphenylamino)pyrimidine-5-carboxamide]
The IC50 of the first is lower: 10 to 100 nM for the first, 100 to 1000 nM for the second. The first is the more potent here.

Compared with `NC(=O)c1cnc(Nc2ccc(Cl)cc2)nc1N[C@H]1CC[C@@H](N)CC1` [Example 186, 4-(4-aminocyclohexylamino)-2-(4-chlorophenylamino)pyrimidine-5-carboxamide], `Cc1ccc(Nc2ncc(C(N)=O)c(N[C@H]3CC[C@H](N)CC3)n2)cc1` [Example 244, 4-(trans-4-aminocyclohexylamino)-2-(p-tolylamino)pyrimidine-5-carboxamide] is higher in IC50: 10 to 100 nM for the first, 100 to 1000 nM for the second.

First: Cc1cccc(Nc2nc(N[C@@H]3CC[C@@H](C(=O)N4CCC4)C[C@@H]3N)ncc2C(N)=O)c1 [Example 191, 2-((1R,2S,4R)-2-amino-4-(azetidine-1-carbonyl)cyclohexylamino)-4-(m-tolylamino)pyrimidine-5-carboxamide]
Second: CC(C)(C(=O)O)c1cccc(Nc2nc(N[C@@H]3CCCC[C@@H]3N)ncc2C(N)=O)c1 [Example 203]
The IC50 of the first is lower: 1 to 10 nM for the first, 100 to 1000 nM for the second. The first is the more potent here.

First: Cc1csc(Nc2nc(N[C@H](CC(C)C)C(N)=O)ncc2C(N)=O)c1 [Example 194, (R)-2-(1-amino-4-methyl-1-oxopentan-2-ylamino)-4-(4-methylthiophen-2-ylamino)pyrimidine-5-carboxamide]
Second: Cc1csc(Nc2nc(N[C@@H](C(N)=O)C(C)C)ncc2C(N)=O)c1 [Example 195, (R)-2-(1-amino-3-methyl-1-oxobutan-2-ylamino)-4-(4-methylthiophen-2-ylamino)pyrimidine-5-carboxamide]
The IC50 of the first is higher: 10 to 100 nM for the first, 1 to 10 nM for the second.

First: CC(=O)N[C@H]1CCCC[C@H]1Nc1ncc(C(N)=O)c(Nc2cccc(-n3nccn3)c2)n1 [Example 196]
Second: NC(=O)c1cnc(N[C@@H]2CCC[C@H](F)[C@@H]2N)nc1Nc1cccc(-n2nccn2)c1 [Example 235, 4-(3-(2H-1,2,3-triazol-2-yl)phenylamino)-2-((1R,2R,3S)-2-amino-3-fluorocyclohexylamino)pyrimidine-5-carboxamide]
The IC50 of the first is higher: 100 to 1000 nM for the first, 10 to 100 nM for the second.

First: COC(=O)C(C)(C)c1cccc(Nc2nc(N[C@@H]3CCCC[C@@H]3N)ncc2C(N)=O)c1 [Example 201]
Second: NC(=O)c1cnc(N[C@@H]2CCCC[C@@H]2N)nc1Nc1cccc(-n2ncc(O)n2)c1 [Example 252, 2-(((1R,2S)-2-aminocyclohexyl)amino)-4-((3-(4-hydroxy-2H-1,2,3-triazol-2-yl)phenyl)amino)pyrimidine-5-carboxamide]
The IC50 of the first is higher: 100 to 1000 nM for the first, 1 to 10 nM for the second. The second is the more potent here.

`NC(=O)c1cnc(N[C@@H]2CCCC[C@@H]2N)nc1Nc1cccc(Oc2nc3ccccc3s2)c1` [Example 204] and `NC(=O)c1cnc(N[C@@H]2CCCC[C@@H]2N)nc1Nc1cccc(-n2ncc[n+]2[O-])c1` [Example 251, 2-(3-((2-(((1R,2S)-2-aminocyclohexyl)amino)-5-carbamoylpyrimidin-4-yl)amino)phenyl)-2H-1,2,3-triazole 1-oxide] fall in the same range of IC50: 10 to 100 nM for the first, 10 to 100 nM for the second.

`CC[C@@H](Nc1nc(Nc2cc(C)ns2)ncc1C(N)=O)C(N)=O` [Example 205] and `CC[C@@H](Nc1ncc(C(N)=O)c(Nc2cc(-n3cccn3)cc(-n3cccn3)c2)n1)C(N)=O` [Example 250, (R)-2-((1-amino-1-oxobutan-2-yl)amino)-4-((3,5-di(1H-pyrazol-1-yl)phenyl)amino)pyrimidine-5-carboxamide] fall in the same range of IC50: 100 to 1000 nM for the first, 100 to 1000 nM for the second.

First: Cc1cccc(Nc2nc(NCC(N)CC(F)F)ncc2C(N)=O)c1 (stereo not drawn) [Example 206]
Second: Cc1ccc(Nc2nc(NC[C@H](C)N)ncc2C(N)=O)cc1 [Example 207]
The IC50 of the first is lower: 10 to 100 nM for the first, 100 to 1000 nM for the second.

`Cn1ccc2c(Nc3nc(N[C@@H]4CCNC4)ncc3C(N)=O)cccc21` [Example 212, (R)-4-((1-methyl-1H-indol-4-yl)amino)-2-(pyrrolidin-3-ylamino)pyrimidine-5-carboxamide] and `NC(=O)c1cnc(N[C@@H]2CCNC2)nc1Nc1ccc2ncccc2c1` [Example 214, (R)-2-(pyrrolidin-3-ylamino)-4-(quinolin-6-ylamino)pyrimidine-5-carboxamide] fall in the same range of IC50: 10 to 100 nM for the first, 10 to 100 nM for the second.

First: NC(=O)c1cnc(N[C@H]2CCCNC2)nc1Nc1cnc2ccccc2c1 [Example 215, (S)-2-(piperidin-3-ylamino)-4-(quinolin-3-ylamino)pyrimidine-5-carboxamide]
Second: NC(=O)c1cnc(NC2CCNC2=O)nc1Nc1cnc2ccccc2c1 (stereo not drawn) [Example 216, 2-((2-oxopyrrolidin-3-yl)amino)-4-(quinolin-3-ylamino)pyrimidine-5-carboxamide]
The IC50 of the first is lower: 100 to 1000 nM for the first, over 1000 nM for the second. The first is the more potent here.

Compared with `NC(=O)c1cnc(N[C@H]2CN[C@H](C(=O)O)C2)nc1Nc1cnc2ccccc2c1` [Example 217, (2S,4R)-4-((5-carbamoyl-4-(quinolin-3-ylamino)pyrimidin-2-yl)amino)pyrrolidine-2-carboxylic acid], `NC(=O)c1cnc(N[C@@H]2CCC[C@H](F)[C@@H]2N)nc1Nc1cnc2ccccc2c1` [Example 241, 2-((1R,2R,3S)-2-amino-3-fluorocyclohexylamino)-4-(quinolin-3-ylamino)pyrimidine-5-carboxamide] is lower in IC50: over 1000 nM for the first, 100 to 1000 nM for the second. The second is the more potent here.

`CNC(=O)[C@@H]1C[C@@H](Nc2ncc(C(N)=O)c(Nc3cccc(C)c3)n2)CN1` [Example 218, 2-(((3R,5S)-5-(methylcarbamoyl)pyrrolidin-3-yl)amino)-4-(m-tolylamino)pyrimidine-5-carboxamide] and `Cc1cccc(Nc2nc(N[C@H]3CN[C@H](C(=O)N(C)C)C3)ncc2C(N)=O)c1` [Example 219, 2-(((3R,5S)-5-(dimethylcarbamoyl)pyrrolidin-3-yl)amino)-4-(m-tolylamino)pyrimidine-5-carboxamide] cannot be ordered by IC50: over 1000 nM for the first, over 1000 nM for the second.

First: CN1CCCc2cc(Nc3nc(N[C@H]4CN[C@@H](CO)C4)ncc3C(N)=O)ccc21 [Example 220, 2-(((3R,5R)-5-(hydroxymethyl)pyrrolidin-3-yl)amino)-4-((1-methyl-1,2,3,4-tetrahydroquinolin-6-yl)amino)pyrimidine-5-carboxamide]
Second: NC(=O)c1cnc(N[C@H]2CN[C@H](CO)C2)nc1Nc1cccc(-n2nccn2)c1 [Example 225]
The IC50 of the first is lower: 10 to 100 nM for the first, 100 to 1000 nM for the second.

First: NC(=O)c1cnc(N[C@@H]2CCNC2)nc1Nc1cccc(-n2nccn2)c1 [Example 221, (R)-4-(3-(2H-1,2,3-triazol-2-yl)phenyeamino)-2-(pyrrolidin-3-ylamino)pyrimidine-5-carboxamide]
Second: C=C1C[C@@H](Nc2ncc(C(N)=O)c(Nc3cccc(-n4nccn4)c3)n2)CN1 [Example 226]
The IC50 of the first is lower: 1 to 10 nM for the first, 100 to 1000 nM for the second.

`NC(=O)c1cnc(N[C@@H]2CCNC2)nc1Nc1cccc(-c2ncccn2)c1` [Example 222] and `NC(=O)c1cnc(N[C@@H]2CCC[C@H](F)[C@@H]2N)nc1Nc1cccc(-c2ncccn2)c1` [Example 236, 2-((1R,2R,3S)-2-amino-3-fluorocyclohexylamino)-4-(3-(pyrimidin-2-yl)phenylamino)pyrimidine-5-carboxamide] fall in the same range of IC50: 10 to 100 nM for the first, 10 to 100 nM for the second.

Compared with `CCN1CC[C@@H](Nc2ncc(C(N)=O)c(Nc3cccc(-n4nccn4)c3)n2)C1` [Example 223], `N#CCN1CC[C@@H](Nc2ncc(C(N)=O)c(Nc3cccc(-n4nccn4)c3)n2)C1` [Example 224] is lower in IC50: over 1000 nM for the first, 100 to 1000 nM for the second. The second is the more potent here.

`CC1=C[C@@H](Nc2ncc(C(N)=O)c(Nc3cccc(-n4nccn4)c3)n2)CN1` [Example 227] and `NC(=O)c1cnc(N[C@H]2CNC(=O)C2)nc1Nc1cccc(-n2nccn2)c1` [Example 230] fall in the same range of IC50: 100 to 1000 nM for the first, 100 to 1000 nM for the second.

First: NC(=O)c1cnc(N[C@@H]2CCN(C=O)C2)nc1Nc1cccc(-n2nccn2)c1 [Example 228]
Second: NC(=O)c1cnc(N[C@H]2CN[C@@H](CF)C2)nc1Nc1cccc(-n2nccn2)c1 [Example 229, 4-((3-(2H-1,2,3-triazol-2-yl)phenyl)amino)-2-(((3R,5R)-5-(fluoromethyl)pyrrolidin-3-yl)amino)pyrimidine-5-carboxamide]
The IC50 of the first is higher: over 1000 nM for the first, 100 to 1000 nM for the second.

`Cc1nsc(Nc2nc(N[C@@H]3CCCC[C@@H]3N)ncc2C(N)=O)c1I` [Example 231, 2-(((1R,2S)-2-aminocyclohexyl)amino)-4-((4-iodo-3-methylisothiazol-5-yl)amino)pyrimidine-5-carboxamide] and `Cc1nsc(Nc2nc(N[C@@H]3CCCC[C@@H]3N)ncc2C(N)=O)c1Cl` [Example 232, 2-(((1R,2S)-2-aminocyclohexyl)amino)-4-((4-chloro-3-methylisothiazol-5-yl)amino)pyrimidine-5-carboxamide] fall in the same range of IC50: 10 to 100 nM for the first, 10 to 100 nM for the second.

`NC(=O)c1cnc(N[C@@H]2CCC[C@H](F)[C@@H]2N)nc1Nc1ccc2ncccc2c1` [Example 237, 2-((1R,2R,3S)-2-amino-3-fluorocyclohexylamino)-4-(quinolin-6-ylamino)pyrimidine-5-carboxamide] and `NC(=O)c1cnc(N[C@@H]2CCC[C@H](F)[C@@H]2N)nc1Nc1ccc2ncsc2c1` [Example 239, 2-((1R,2R,3S)-2-amino-3-fluorocyclohexylamino)-4-(benzo[d]thiazol-6-ylamino)pyrimidine-5-carboxamide] fall in the same range of IC50: 10 to 100 nM for the first, 10 to 100 nM for the second.

`NC(=O)c1cnc(N[C@@H]2CCC[C@H](F)[C@@H]2N)nc1Nc1cccc(-n2cccn2)c1` [Example 238, 4-(3-(1H-pyrazol-1-yl)phenylamino)-2-((1R,2R,3S)-2-amino-3-fluorocyclohexylamino)pyrimidine-5-carboxamide] and `Cn1ncc2c(Nc3nc(N[C@@H]4CCC[C@H](F)[C@@H]4N)ncc3C(N)=O)cccc21` [Example 240, 2-((1R,2R,3S)-2-amino-3-fluorocyclohexylamino)-4-(1-methyl-1H-indazol-4-ylamino)pyrimidine-5-carboxamide] fall in the same range of IC50: 10 to 100 nM for the first, 10 to 100 nM for the second.

For `NC(=O)c1cnc(N[C@@H]2CCCC[C@@H]2N)nc1Nc1cc(-n2cccn2)cc(-n2cccn2)c1` [Example 249, 2-(((1R,2S)-2-aminocyclohexyl)amino)-4-((3,5-di(1H-pyrazol-1-yl)phenyl)amino)pyrimidine-5-carboxamide], the IC50 was 1 to 10 nM.
